The values below are quoted from earlier work in patent EP1077694B1, “ARYL NITRONE THERAPEUTICS FOR THE TREATMENT OF INFLAMMATORY BOWEL DISEASE” (Renovis, Inc., priority 1998, dated 1999).

In this data set the test system is senescence-accelerated mice.

With `CC(C)(C)[N+]([O-])=Cc1ccccc1` [PBN, α-phenyl-t-butyl nitrone], the “increase the life span” value was “one third”.
